From patent publication US20070032418A1, “Small-molecule inhibitors of angiogenin and rnases and in vivo and in vitro methods of using same” (Ambion, Inc, priority 2003, published 2007)
Entries after “also recorded” stand apart in the source; their conditions may differ. Where two headings read alike, the source gives them in different places.

Assays:
angiogenin (ANG) = angiogenin (ANG) (Homo sapiens, UniProt P03950); assay: Inhibition of ANG ribonucleolytic activity, HPLC assay of oligonucleotide cleavage; assay type: biochemical; conditions: 20 mM Hepes, 100 mM NaCl
angiogenin (ANG), sequence (P03950 25-147): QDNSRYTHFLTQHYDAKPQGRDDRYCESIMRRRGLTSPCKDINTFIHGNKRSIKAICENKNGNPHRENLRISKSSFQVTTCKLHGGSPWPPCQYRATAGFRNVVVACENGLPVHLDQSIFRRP
Procedure: Reaction mixtures with and without test compounds were chromatographed on a Mono Q anion-exchange column with an NaCl gradient in 10 mM Tris, pH 8. […] This information was used to calculate kcat/Km values, which were then fitted to the equation (kcat/Km)i=(kcat/Km)0/[…], where (kcat/Km)i and (kcat/Km)0 are defined as the values in the presence and absence of inhibitor, respectively, and [I] is defined as the inhibitor concentration. At least four concentrations (in a range of about 10 μM-above 100 μM) were used in the final hit confirmation in order to distinguish all true hits.
Chemical structures of selected compounds are shown in these Tables and in FIGS. 4 and 5.

[1] = system: PC-3 human prostate tumor cells; assay: PC-3 tumor formation in athymic mice; assay type: in vivo
Procedure: Compound NCI-65828 was identified by HTS as an ANG inhibitor. […] Each compound was administered 6 times per week, in doses of 40 μg, 8 μg, and 1.6 μg (about 2, 0.4 and 0.08 mg/kg/day). The compound was dissolved in DMSO, and control mice received a corresponding volume of DMSO (4%, 0.8% and 0%). Another control group received saline.
Another in vivo mouse experiment was performed using 8 or 12 mice per group. The experimental group was administered PC-3 cells and NCI-65828, as intraperitoneal injections (40 μg and 8 μg). A control group of mice was administered PC-3 cells and a related compound that was known to be ineffective at inhibiting ANG enzymatic activity. Mice were evaluated for number of animals that remained tumor free as a function of time, at intervals of 3 days from days 14-42 following the initial injection.
Concentrated stocks of inhibitors were prepared in dimethylsulfoxide (DMSO), and the inhibitors were diluted into phosphate-buffered saline (PBS); the final DMSO concentration for the 40 μg and 20 μg doses was 4% in PBS, and that for the 8 μg and 4 μg doses was 0.8% in PBS. Statistical significance (P values) was determined from Mantel-Cox tests performed on Kaplan-Meier survivor functions. Results for inhibitor-treated groups were compared to results obtained with the appropriate DMSO control groups. A positive control group of mice, administered antisense DNA specific for the ANG gene in PBS (no DMSO), was also included. ANG antisense DNA was shown previously to be extremely effective in this tumor model.
Tumor cells from a human prostate cancer (PC-3) were injected subcutaneously (s.c.) in the shoulder of 6-7 week old athymic (nude) mice on day 0. Treatment with the indicated amount of inhibitor (in 100 μL) was given subcutaneously in the same area as the cells, 6 times per week, with the first injection 5-10 minutes prior to injection of the cells. The total dosage was 0.4 mg to 2 mg per kg per day.

[2] = system: HT-29 human colonic adenocarcinoma cells; assay: HT-29 tumor formation in athymic mice; assay type: in vivo; conditions: local treatment s.c. 40 μg/day, 6×/week
Procedure: Mice were examined 2×/week for palpable tumors. Treatment doses: 40 μg/day (A and C); 8 μg/day (B). n=8 for all groups except the vehicle controls in A and B, where n=12.

[3] = PC-3 s.c., 8 μg s.c. 6 times per week
[4] = PC-3 s.c., 40 μg s.c. 6 times per week

Ki (angiogenin (ANG); pH 7.0, 37° C., read-out: Ki for inhibition of the ribonucleolytic activity of angiogenin): 81 µM
Ki (angiogenin (ANG); inhibition of ANG-catalyzed cleavage of an RNA oligonucleotide, 37° C., read-out: KI): 81 µM
Compound: Nc1ccc(/N=N/c2ccc(-c3ccc(O)cc3)cc2)c2ccc(S(=O)(=O)O)cc12 [NCI-65828, 8-amino-5-(4′-hydroxybiphenyl-4-ylazo)naphthalene-2-sulfonate]
Appearance of tumors (FIGS. 1A and 1B) ([1]; PC-3, 40 μg and 8 μg, days 14-42, vs controls): delay or prevention; also recorded: delayed the appearance of tumors
Rate of tumor development (preliminary test) ([1]; PC-3, s.c. 6 times per week, doses of 40 μg, 8 μg and 1.6 μg, vs control groups): developed tumors at a slower rate
Percentage of Tumor-Bearing Mice, day 14 [1, 3]: 0%
Percentage of Tumor-Bearing Mice, day 17 [1, 3]: 38%
Percentage of Tumor-Bearing Mice, day 21 [1, 3]: 50%
Percentage of Tumor-Bearing Mice, day 24 [1, 3]: 100%
Percentage of Tumor-Bearing Mice, day 32 [1, 3]: 100%
Percentage of Tumor-Bearing Mice, day 35 [1, 3]: 100%
Percentage of Tumor-Bearing Mice, day 14 [1, 4]: 0%
Percentage of Tumor-Bearing Mice, day 17 [1, 4]: 25%
Percentage of Tumor-Bearing Mice, day 21 [1, 4]: 50%
Percentage of Tumor-Bearing Mice, day 24 [1, 4]: 100%
Percentage of Tumor-Bearing Mice, day 32 [1, 4]: 100%
Percentage of Tumor-Bearing Mice, day 35 [1, 4]: 100%
Time of appearance of tumors (Example 3, Table 1) ([1]; PC-3 s.c., treatment s.c. 6 times per week): delayed considerably the time of appearance of tumors
Formation of tumors (FIG. 1C) [2]: delay or prevention; also recorded: significantly delayed the formation of tumors
